Patent publication US20220143226A1, “USE OF TRIAZOLO[4,5-D]PYRIMIDINE DERIVATIVES” (UNIVERSITÉ DE LIÈGE, priority 2019, published 2022)

Columns and labels:
platelet P2Y12 receptor = platelet P2Y12 receptor (Homo sapiens, UniProt Q9H244); conditions: well-known in the art; cited from earlier work
HT29 cells = test: Radiotracer uptake into HT29 cells; assay type: cell-based, human; conditions: 2 MBq tracer, 1 h at 37° C.
Procedure: (§1) THP1 (ATCC® TIB-202™) and HL60 (ATCC® CCL-240™) cell lines were grown in RPMI 1640 tissue culture medium supplemented with L-glutamine, 10% foetal calf serum and 1% penicillin/streptomycin at 37° C. and 5% CO2. HT29 cell line (ATCC® HTB-38) was grown in McCoy's 5A medium and 10% foetal bovine serum at 37° C. and 5% CO2.
(§2) Non-adherent cell lines (HL60, THP1; 1×10^6 cells ml^−1) were harvested, washed and resuspended in 1 ml tissue culture medium. The adherent cells HT29 were maintained in 6-well plates at 80% confluence.
(§3) Bacteria and non-adherent cells were harvested by centrifugation (600×g, 5 min) and washed three times by successive centrifugations. Cell supernatants were collected in scintillation vials. After washing, the cells were transferred into scintillation vials. Adherent cells were washed three times with fresh medium (McCoy's 5A medium plus 10% foetal bovine serum). Supernatants were collected into scintillation vials. Adherent cells were detached by trypsin treatment and placed into scintillation vials. The scintillation vials for cells and supernatants were counted by gamma counter. Results were obtained as counts per min. Results were normalised for controls (no cells) and by calculating the percentage of activity in the cell containing scintillation vials compared with the total counts (cells and supernatant combined).

HL60 cells = test: Radiotracer uptake into HL60 cells; assay type: cell-based, human; conditions: 2 MBq tracer, 1 h at 37° C.
Procedure: as §1, §2, §3

S. epidermidis bacteria = test: Radiotracer uptake into bacteria, selectivity over mammalian cells (Example 4); assay type: cell-based; conditions: 2 MBq tracer, 1 h at 37° C.
Procedure: as §3, with “S. epidermidis bacteria were grown overnight in tryptic soy broth (TSB) at 37° C., with shaking at 250 rpm. The overnight culture was diluted to OD600 0.1 and incubated until mid-exponential phase was reached. 1×10^8 CFU were resuspended in 1 ml RPMI 1640. […] Bacteria” for “Bacteria”

[1] = system: platelet suspensions containing bacteria; test: Radiotracer uptake into platelet suspensions containing bacteria; assay type: cell-based, human; conditions: 2 MBq tracer, 1 h at 37° C.
Procedure: Preparation of human washed platelets: a Blood sample was collected from healthy volunteers on Acid Citrate Dextrose (ACD: 93 mM Na3-citrate, 7 mM citric acid, 14 mM dextrose, pH 6.0) containing 1 U/ml apyrase in a volume ratio of ACD to blood of 1:6. Blood was centrifuged for 5 s at 800×g followed by 5 min at 100×g to obtain platelet rich plasma (PRP). PRP was diluted 3-fold in ACD containing 1 U/ml apyrase ((Apyrase from potatoes, Grade I (A6132 Sigma-Aldrich)) and centrifuged at 1000×g to obtain a platelet pellet. The platelet pellet was resuspended at a concentration of 3×10^8 ml^−1 in Tyrode's buffer (137 mM NaCl, 12 mM NaHCO3, 2 mM KCl, 0.34 mM Na2HPO4, 1 mM MgCl2, 5.5 mM glucose, 5 mM Hepes, 0.35% Bovine Serum Albumine from Sigma Aldrich A3294) and Hepes refers to 4-(2-Hydroxyethyl)piperazine-1-ethanesulfonic acid, N-(2-Hydroxyethyl)piperazine-N′-(2-ethanesulfonic acid) (H4034, Sigma-Aldrich).
Bacteria and platelets were harvested by centrifugation (1000×g, 10 min) and washed three times by successive centrifugations (1000×g for 10 min). Supernatants were collected in scintillation vials. After washing, the cells were transferred into scintillation vials. Cells and supernatants were counted by gamma counter (2470 Wizard^2™ (Perkin Elmer))
Results were obtained as counts per min. […]

THP1 cells = test: Radiotracer uptake into THP1 cells; assay type: cell-based, human; conditions: 2 MBq tracer, 1 h at 37° C.
Procedure: as §1, §2, §3

Sequence of platelet P2Y12 receptor (Q9H244 whole entry): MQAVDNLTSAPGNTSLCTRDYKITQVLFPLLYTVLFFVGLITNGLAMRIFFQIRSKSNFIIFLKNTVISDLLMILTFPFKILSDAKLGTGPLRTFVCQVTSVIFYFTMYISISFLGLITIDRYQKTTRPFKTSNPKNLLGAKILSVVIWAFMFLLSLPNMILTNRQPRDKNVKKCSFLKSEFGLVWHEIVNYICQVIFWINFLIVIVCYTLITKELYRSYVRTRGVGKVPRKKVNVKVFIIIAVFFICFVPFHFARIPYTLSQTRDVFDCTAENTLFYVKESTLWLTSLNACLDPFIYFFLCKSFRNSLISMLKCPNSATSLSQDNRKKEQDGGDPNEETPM

Row | SMILES | binding to platelet P2Y12 receptor (platelet P2Y12 receptor) | uptake into HT29 (tumor) cells (HT29 cells) | uptake into HL-60 (leukocytic) cells (HL60 cells) | uptake into bacteria (S. epidermidis bacteria) | relative activity associated with the cell mixture, relative to the activity of 18F-FDG [1] | uptake into THP1 (leukocytic) cells (THP1 cells)
1 | CCCSc1nc(N[C@@H]2C[C@H]2c2ccc(F)c(F)c2)c2nnn([C@@H]3C[C@H](OCCO)[C@@H](O)[C@H]3O)c2n1 [Triafluocyl] | binds the platelet P2Y12 receptor reversibly |  |  |  |  | 
2 | CCCSc1nc(NC2CC2c2ccc([18F])c(F)c2)c2nnn([C@@H]3C[C@H](OCCO)[C@@H](O)[C@H]3O)c2n1 (stereo partly drawn) [^18F-Triafluocyl, (1S,2S,3R,5S)-3-(7-((2-(3-fluoro-4-(fluoro-^18F)phenyl)cyclopropyl)amino)-5-(propylthio)-3H-[1,2,3]triazolo[4,5-d]pyrimidin-3-yl)-5-(2-hydroxyethoxy)cyclopentane-1,2-diol] |  | no uptake was observed | no uptake was observed | uptake into bacteria | about 10 fold | no uptake was observed
